In brackets after ≈: the same amount, converted by molar mass.
Tests used:
Format in all cases: cell-based
[1] = system: Sh. sonnei I.P.S.; assay: M.I.C. in vitro, nutrient agar dilution; conditions: Shigella sonnei, 18 h; Table III; Sh. sonnei I.P.S.; read-out: M.I.C.
Experimental: (§1) After sterilisation at 120° C., the pH was 6.8.
(§2) The minimum inhibitory concentrations (M.I.C.) were determined by dilution of the test compounds in this mixture, the concentration ranging from 0.05 to 100 μg/cm^3 in a geometric progression with a factor of 2.
(§3) The inoculation of the dishes was carried out by means of a multiple inoculator with 10^-3 dilutions of 18 hour old broth cultures.
(§4) The dishes were placed in an oven at 37° C. and the readings were taken afer an incubation time of 18 hours. The M.I.C. was taken as the lowest concentration which inhibited a culture.

[2] = system: B. subtilis; assay: M.I.C. in vitro, nutrient agar dilution; conditions: Bacillus subtilis, 18 h; Table III; B. Subtilis; read-out: M.I.C.
Experimental: as §1, §2, §3, §4

[3] = system: Esch. coli 111 B4; assay: M.I.C. in vitro, nutrient agar dilution; conditions: Escherichia coli, 18 h; Table III; Esch. coli 111 B4
Experimental: as §1, §2, §3, §4

[4] = system: S. oranienburg 1066; assay: M.I.C. in vitro, nutrient agar dilution; conditions: Salmonella enterica, 18 h; Table III; S. oranienburg 1066; read-out: M.I.C.
Experimental: as §1, §2, §3, §4

[5] = system: S. enteritidis Danysz; assay: M.I.C. in vitro, nutrient agar dilution; conditions: Salmonella enterica, 18 h; Table III; S. enteritidis Danysz; read-out: M.I.C.
Experimental: as §1, §2, §3, §4

[6] = system: Providentia 0223; assay: M.I.C. in vitro, nutrient agar dilution; conditions: 18 h; Table III; Providentia 0223; read-out: M.I.C.
Experimental: as §1, §2, §3, §4

[7] = system: Serratia; assay: M.I.C. in vitro, nutrient agar dilution; conditions: 18 h, Table III, read-out: M.I.C.
Experimental: as §1, §2, §3, §4

[8] = system: Bord. bronchis. 4.617; assay: M.I.C. in vitro, nutrient agar dilution; conditions: 18 h; Table III; Bord. bronchis. 4.617; read-out: M.I.C.
Experimental: as §1, §2, §3, §4

[9] = system: Staph. 9.144; assay: M.I.C. in vitro, nutrient agar dilution; conditions: 18 h; Table III; Staph. 9.144; read-out: M.I.C.
Experimental: as §1, §2, §3, §4

[10] = system: Pr. vulgaris 12-53; assay: M.I.C. in vitro, nutrient agar dilution; conditions: Proteus vulgaris, 1253, 18 h; Table III; Pr. vulgaris 12-53; read-out: M.I.C.
Experimental: as §1, §2, §3, §4

[11] = system: Pr. mirabilis Nig; assay: M.I.C. in vitro, nutrient agar dilution; conditions: Proteus mirabilis, 18 h; Table III; Pr. mirabilis Nig; read-out: M.I.C.
Experimental: as §1, §2, §3, §4

[12] = system: Ps. aeruginosa A.22; assay: M.I.C. in vitro, nutrient agar dilution; conditions: Pseudomonas aeruginosa, 18 h; Table III; Ps. aeruginosa A.22; read-out: M.I.C.
Experimental: as §1, §2, §3, §4

[13] = system: Pr. morganii A.236; assay: M.I.C. in vitro, nutrient agar dilution; conditions: Morganella morganii, 18 h; Table III; Pr. morganii A. 236; read-out: M.I.C.
Experimental: as §1, §2, §3, §4

[14] = system: Esch. coli 54.127 O.M.S.; assay: M.I.C. in vitro, nutrient agar dilution; conditions: Escherichia coli, 18 h; Table III; Esch. coli 54.127 O.M.S.; read-out: M.I.C.
Experimental: as §1, §2, §3, §4

[15] = system: Klebs. pneum. 10.031; assay: M.I.C. in vitro, nutrient agar dilution; conditions: 18 h; Table III; Klebs. pneum. 10.031; read-out: M.I.C.
Experimental: as §1, §2, §3, §4

[16] = system: Staph. 209 P; assay: M.I.C. in vitro, nutrient agar dilution; conditions: 18 h; Table III; Staph. 209 P; read-out: M.I.C.
Experimental: as §1, §2, §3, §4

[17] = system: Strepto D.M. 19; assay: M.I.C. in vitro, nutrient agar dilution; conditions: 18 h; Table III; Strepto D.M. 19; read-out: M.I.C.
Experimental: as §1, §2, §3, §4

[18] = system: Arizona 6.211; assay: M.I.C. in vitro, nutrient agar dilution; conditions: 18 h; Table III; Arizona 6.211; read-out: M.I.C.
Experimental: as §1, §2, §3, §4

[19] = system: Strepto A 561; assay: M.I.C. in vitro, nutrient agar dilution; conditions: 18 h; Table III; Strepto A 561
Experimental: as §1, §2, §3, §4

[20] = system: Esch. coli 95 I.S.M.; assay: M.I.C. in vitro, nutrient agar dilution; conditions: Escherichia coli, 18 h; Table III; Esch. coli 95 I.S.M.; read-out: M.I.C.
Experimental: as §1, §2, §3, §4

[21] = system: Ps. aeruginosa 72.345; assay: M.I.C. in vitro, nutrient agar dilution; conditions: Pseudomonas aeruginosa, 18 h; Table III; Pd. aeruginosa 72.345; read-out: M.I.C.
Experimental: as §1, §2, §3, §4

[22] = system: Salm. typhi 0901; assay: microbe, parasite or virus in culture; conditions: Salmonella enterica, 18 h; Table III; Salm. typhi 0901
Experimental: as §1, §2, §3, §4

Compound	MIC [1] [µg/mL]	MIC [2] [µg/mL]	MIC [3] [µg/mL]	MIC [4] [µg/mL]	MIC [5] [µg/mL]	MIC [6] [µg/mL]	MIC [7] [µg/mL]	MIC [8] [µg/mL]	MIC [9] [µg/mL]	MIC [10] [µg/mL]	MIC [11] [µg/mL]	MIC [12] [µg/mL]	MIC [13] [µg/mL]	MIC [14] [µg/mL]	MIC [15] [µg/mL]	MIC [16] [µg/mL]	MIC [17] [µg/mL]	MIC [18] [µg/mL]	MIC [19] [µg/mL]	MIC [20] [µg/mL]	other results
CN1CCN(c2cc3c(cc2F)c(=O)c(C(=O)O)cn3C)CC1 [Example 31, 6-Fluoro-1-methyl-7-(4-methylpiperazinyl)-4-oxo-1,4-dihydro-quinoline-3-carboxylic acid]	0.2 to 0.4 (≈ 0.626 to 1.25 µM)	0.8 (≈ 2.51 µM)	0.8 (≈ 2.51 µM)	6.2 to 12.5 (≈ 19.4 to 39.1 µM)	0.4 (≈ 1.25 µM)	0.8 to 1.6 (≈ 2.51 to 5.01 µM)	0.2 (≈ 0.626 µM)	6.25 (≈ 19.6 µM)	0.4 (≈ 1.25 µM)	0.2 (≈ 0.626 µM)	0.4 (≈ 1.25 µM)	1.6 (≈ 5.01 µM)	0.2 (≈ 0.626 µM)	0.8 (≈ 2.51 µM)	0.8 (≈ 2.51 µM)	0.4 (≈ 1.25 µM)	3.1 to 6.2 (≈ 9.71 to 19.4 µM)	0.2 to 0.4 (≈ 0.626 to 1.25 µM)	12.5 (≈ 39.1 µM)	0.1 (≈ 0.313 µM)	MIC [21]: 1.6 µg/mL (≈ 5.01 µM); MIC [22]: 0.4 µg/mL (≈ 1.25 µM)
Cn1cc(C(=O)O)c(=O)c2cc(F)c(N3CCNCC3)cc21 [Example 32, 6-fluoro-1-methyl-4-oxo-7-piperazinyl-1,4-dihydro-quinoline-3-carboxylic acid]	0.1 (≈ 0.328 µM)	0.4 (≈ 1.31 µM)	0.2 (≈ 0.655 µM)	12.5 (≈ 40.9 µM)	0.2 (≈ 0.655 µM)	1.6 (≈ 5.24 µM)	0.2 (≈ 0.655 µM)	6.25 (≈ 20.5 µM)	0.8 (≈ 2.62 µM)	0.2 (≈ 0.655 µM)	0.2 (≈ 0.655 µM)	0.8 to 3.12 (≈ 2.62 to 10.2 µM)	0.2 (≈ 0.655 µM)	0.2 (≈ 0.655 µM)	0.1 (≈ 0.328 µM)	0.8 (≈ 2.62 µM)	12.5 (≈ 40.9 µM)	0.2 (≈ 0.655 µM)	6.2 to 12.5 (≈ 20.3 to 40.9 µM)	0.2 (≈ 0.655 µM)	MIC [21]: 0.4 to 3.12 µg/mL (≈ 1.31 to 10.2 µM); MIC [22]: 0.8 µg/mL (≈ 2.62 µM)
C=CCn1cc(C(=O)O)c(=O)c2cc(F)c(N3CCN(C)CC3)cc21 [Example 34, 1-Allyl-6-fluoro-7-(4-methylpiperazinyl)-4-oxo-1,4-dihydro-quinoline-3-carboxylic acid]	0.2 (≈ 0.579 µM)	0.4 (≈ 1.16 µM)	0.4 (≈ 1.16 µM)	12.5 (≈ 36.2 µM)	0.4 to 0.8 (≈ 1.16 to 2.32 µM)	12.5 (≈ 36.2 µM)	0.05 to 0.4 (≈ 0.145 to 1.16 µM)	0.2 (≈ 0.579 µM)	1.6 (≈ 4.63 µM)	0.2 (≈ 0.579 µM)	0.8 to 1.6 (≈ 2.32 to 4.63 µM)	3.1 (≈ 8.98 µM)	0.05 to 0.2 (≈ 0.145 to 0.579 µM)	0.4 (≈ 1.16 µM)	0.1 (≈ 0.29 µM)	0.8 (≈ 2.32 µM)	6.2 to 12.5 (≈ 18 to 36.2 µM)	0.4 (≈ 1.16 µM)	50 (≈ 145 µM)	0.4 (≈ 1.16 µM)	MIC [21]: 3.1 µg/mL (≈ 8.98 µM); MIC [22]: 0.1 µg/mL (≈ 0.29 µM)
C=Cn1cc(C(=O)O)c(=O)c2cc(F)c(N3CCN(C)CC3)cc21 [Example 41, 6-Fluoro-7-(4-methyl-piperazinyl)-4-oxo-1-vinyl-1,4-dihydro-quinoline-3-carboxylic acid]	0.1 (≈ 0.302 µM)	0.1 (≈ 0.302 µM)	0.1 (≈ 0.302 µM)	1.6 (≈ 4.83 µM)	0.1 (≈ 0.302 µM)	0.8 (≈ 2.41 µM)	0.4 (≈ 1.21 µM)	1.6 (≈ 4.83 µM)	0.2 (≈ 0.604 µM)	0.05 (≈ 0.151 µM)	0.05 (≈ 0.151 µM)	0.4 (≈ 1.21 µM)	0.05 (≈ 0.151 µM)	0.1 (≈ 0.302 µM)	0.1 (≈ 0.302 µM)	0.1 (≈ 0.302 µM)	3.1 (≈ 9.36 µM)	0.1 (≈ 0.302 µM)	12.5 (≈ 37.7 µM)	0.1 (≈ 0.302 µM)	MIC [21]: 0.8 µg/mL (≈ 2.41 µM); MIC [22]: 0.1 µg/mL (≈ 0.302 µM)
C=Cn1cc(C(=O)O)c(=O)c2cc(F)c(N3CCOCC3)cc21 [Example 42, 6-Fluoro-7-morpholino-4-oxo-1-vinyl-1,4-dihydro-quinoline-3-carboxylic acid]	0.8 (≈ 2.51 µM)	0.2 (≈ 0.628 µM)	0.8 (≈ 2.51 µM)	100 (≈ 314 µM)	1.6 (≈ 5.03 µM)	25 (≈ 78.5 µM)	3.1 (≈ 9.74 µM)	12.5 (≈ 39.3 µM)	1.6 (≈ 5.03 µM)	0.8 (≈ 2.51 µM)	1.6 (≈ 5.03 µM)	3.1 (≈ 9.74 µM)	0.2 (≈ 0.628 µM)	0.8 (≈ 2.51 µM)	0.8 (≈ 2.51 µM)	0.8 (≈ 2.51 µM)	12.5 (≈ 39.3 µM)	0.8 (≈ 2.51 µM)	25 (≈ 78.5 µM)	0.8 (≈ 2.51 µM)	MIC [21]: 6.2 µg/mL (≈ 19.5 µM); MIC [22]: 0.8 µg/mL (≈ 2.51 µM)
